Structures can show the parent of a compound that is named as a salt.
Assay: Solubility determination of bulk substance in test solutions of various pH (37° C., 1 hour)
Format: physicochemical
Details: for solubility at 1 h: test solution
Description: Emonapride hydrochloride (0.05-5 g) was added to 10 ml portions of test solutions of various pH and each mixture was shaken at 37° C. for 1 hour, at the end of which it was filtered through Nucripore Membrane (pore size 0.6 μm). A definite portion of the filtrate was taken out and diluted with acetate buffer (pH 3.0) for use as a sample solution.
Separately, about 0.1 g of emonapride hydrochloride was accurately weighed out and dissolved in methanol to make exactly 100 ml. One milliliter portion of this solution was accurately taken out and diluted with acetate buffer (pH 3.0) to make exactly 100 ml for use as the standard solution. For each of the test solution and the standard solution, the absorbance at 313 nm was measured by absorption spectrometry and the solubility was determined.
In the preparation of the test solutions, JP Test Solution 1 was used for pH 1.2, acetate buffer (S.phi.rensen buffer) for pH 2.0-5.0, phosphate buffer (Clark-Lubs buffer) for pH 6.0-7.6 and JP Test Solution 2 for pH 6.8.

Structure (SMILES) | solubility (statement in the description) (conditions over pH 4) | solubility change with pH (as the pH exceeded 4, 37° C.) | pH dependence of dissolution (bulc substance, from solubility at various pH) | solubility at 1 h (pH≤4, 37° C.) [µg/mL] | solubility at 1 h (pH≥6.8, 37° C.) [µg/mL]
CNc1cc(OC)c(C(=O)NC2CCN(Cc3ccccc3)C2C)cc1Cl (centres unmarked) [Emonapride, N-(1-Benzyl-2-methylpyrrolidin-3-yl)-5-chloro-2-methoxy-4-methylaminobenzamide] | drastically insoluble | – | – | – | –
CNc1cc(OC)c(C(=O)NC2CCN(Cc3ccccc3)C2C)cc1Cl (centres unmarked) [emonapride hydrochloride] | – | decreased sharply | pH-dependent | ≥ 5000 | ≤ 10

From patent publication US5624687A, “Quick-dissolution solid preparation” (Yamanouchi Pharmaceutical Co., Ltd., priority 1991, dated 1997)
